Values of other authors, collected in patent publication US6896899B2, “Pharmaceutical preparations of glutathione and methods of administration thereof” (Antioxidant Pharmaceuticals Corp., priority 1996, dated 2005).

Columns and labels:
[1] = human, in vivo, iv
Mouse = settings: GSH pretreatment
[2] = human, in vivo, po, 15 mg/kg
blood pressure = settings: 3,699 mg dose, normal subjects
hematologic parameters = settings: 1,200 mg/day intravenously
HIV = settings: acutely infected cells, chronically infected cells, normal peripheral blood mononuclear cells

For `N[C@@H](CCC(=O)N[C@@H](CS)C(=O)NCC(=O)O)C(=O)O` [GSH, gamma-glutamyl-cysteinyl-glycine], the “volume of distribution of exogenous glutathione” value [1] is listed as 176-107 Ml/Kg, the “protection against morphine-induced lethality” value (Mouse) is listed as “protects against morphine-induced lethality” and the “plasma glutathione levels over the basal concentration” value [2] is listed as 1.5-10 fold. For the same compound, the blood pressure (blood pressure) was “significant decrease”, the “tumor growth and survival” value (hepatocellular carcinoma; 5 g oral GSH per day) was “Two of the female patients survived 1 year and exhibited regression or stagnation of their tumor growth” and the side-effects (hepatocellular carcinoma; human, in vivo, po) was “Two patients withdrew shortly after receiving GSH due to intolerable side-effects”. The “hematologic parameters (hematocrit, hemoglobin, blood count) compared to baseline” value (hematologic parameters) was “significantly increase” and the “cytokine-stimulated HIV expression and replication” value (HIV) was “can inhibit”.
For `CC(=O)N[C@@H](CS)C(=O)O` [NAC, N-acetyl cysteine], the “cytokine-stimulated HIV expression and replication” value (HIV) is given as “can inhibit”.
